# Structures can show the parent of a compound that is named as a salt.
# Key:
# Format in all cases: physicochemical
# [1] = Solid-state (polymorphic/crystal form) stability
# Source text: It is disadvantageous for a formulation to comprise a plurality of crystal forms of an active ingredient in that they may have different bioavailabilities and/or stability. Even slight variations in production conditions may compromise the reproducibility of the crystal form and therefore the performance of the formulated product. In addition, poorly crystalline materials are typically less desirable than highly crystalline materials because they are generally more difficult to handle during formulation processes.
# The Anhydrate is not stable under the conditions necessary for obtaining an SSNMR spectrum.
# [2] = Water retained in the crystal lattice in equilibrium with relative humidity; settings: in equilibrium with a relative humidity of about 5% to about 95%
# Source text: Two new crystalline forms are characterized by, inter alia, x-ray powder diffractometry, or alternatively, solid state nuclear magnetic resonance spectroscopy. One preferred embodiment of the present invention provides for a crystalline (3-cyano-1H-indol-7-yl)-[4-(4-fluorophenethyl)piperazin-1-yl]methanone phosphate hydrate Form I (Form I). Form I is characterized as a non-stoichiometric hydrate in that it retains water about 1.2% by weight of compound (up to approximately ⅓ mole of water per mole of compound) within the crystalline lattice when in equilibrium with a relative humidity of about 5% to about 95%.
# [3] = Solubility in the crystallization/isolation solvent systems; settings: all of the solvent systems tested; isolation temperatures about 5° C. to about 22° C.
# Experimental: Suitable solvents include, but are not limited to, methanol, ethanol, propan-1-ol, propan-2-ol, butan-2-ol, tetrahydrofuran, acetone, and the like. Suitable temperatures for salt formation typically range between about 50° C. to about 75° C. depending on the solvent. One preferred temperature range for salt formation is from the temperature at which the (3-cyano-1H-indol-7-yl)-[4-(4-fluorophenethyl)piperazin-1-yl]methanone is soluble up to the reflux temperature of the solvent. […] However, this may result in a slurry to slurry conversion of (3-cyano-1H-indol-7-yl)-[4-(4-fluorophenethyl)piperazin-1-yl]methanone to the salt.
# Isolation temperatures typically range between about 5° C. and about 22° C.
smiles,measurement,setting,value
"N#Cc1c[nH]c2c(C(=O)N3CCN(CCc4ccc(F)cc4)CC3)cccc12 [hydrochloride salt, (3-cyano-1H-indol-7-yl)-[4-(4-fluorophenethyl)piperazin-1-yl]-methanone, reference compound]",solid form stability upon compression,[1]; upon compression during the manufacturing process,"converts from a single polymorphic form into a second, poorly crystalline, metastable polymorphic form"
"N#Cc1c[nH]c2c(C(=O)N3CCN(CCc4ccc(F)cc4)CC3)cccc12.O=P(O)(O)O [Form I, (3-cyano-1H-indol-7-yl)-[4-(4-fluorophenethyl)piperazin-1-yl]methanone phosphate hydrate Form I]",water retained within the crystalline lattice,[2],about 1.2 % by weight of compound
same,water retained within the crystalline lattice (molar),[2],⅓
same,crystal form conversion on dehydration,[1]; dehydrating the solid at 0% RH and ambient temperature,may be converted to the Anhydrate
"N#Cc1c[nH]c2c(C(=O)N3CCN(CCc4ccc(F)cc4)CC3)cccc12.O=P(O)(O)O [Anhydrate, (3-cyano-1H-indol-7-yl)-[4-(4-fluorophenethyl)piperazin-1-yl]methanone phosphate anhydrate]",crystal form stability under anhydrous conditions,[1]; anhydrous conditions,stable
same,crystal form stability under SSNMR conditions,[1]; conditions necessary for obtaining an SSNMR spectrum,not stable
same,crystal form conversion on exposure to water,"[1]; exposure to water, including atmospheric humidity",may be converted to Form I
"N#Cc1c[nH]c2c(C(=O)N3CCN(CCc4ccc(F)cc4)CC3)cccc12.O=P(O)(O)O [The salt, (3-Cyano-1H-indol-7-yl)-[4-(4-fluorophenethyl)piperazin-1-yl]methanone phosphate]",solubility in solvent systems tested,[3],low solubility
